The assay addresses T1, Ha006a (Helicoverpa armigera, UniProt D5G3E0).
T1 sequence (D5G3E0 25-548): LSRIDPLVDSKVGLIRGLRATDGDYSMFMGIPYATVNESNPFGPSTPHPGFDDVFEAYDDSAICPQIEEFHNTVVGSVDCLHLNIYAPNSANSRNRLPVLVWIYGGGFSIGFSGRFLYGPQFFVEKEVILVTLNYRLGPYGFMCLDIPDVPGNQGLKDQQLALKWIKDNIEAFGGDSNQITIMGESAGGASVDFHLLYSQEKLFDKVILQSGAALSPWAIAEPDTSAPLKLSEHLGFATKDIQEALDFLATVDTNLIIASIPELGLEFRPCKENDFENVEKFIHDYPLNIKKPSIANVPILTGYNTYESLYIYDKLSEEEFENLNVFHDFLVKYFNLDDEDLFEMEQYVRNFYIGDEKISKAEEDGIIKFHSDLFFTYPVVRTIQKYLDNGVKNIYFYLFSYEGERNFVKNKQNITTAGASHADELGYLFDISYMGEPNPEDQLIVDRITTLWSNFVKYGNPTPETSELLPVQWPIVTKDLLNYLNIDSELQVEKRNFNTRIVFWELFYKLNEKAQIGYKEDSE
Put plainly: Differential scanning calorimetry of Ha006a-ligand complexes. It counts as binding. The conditions noted are these: DSC; for Tm1 (°C) ± SE: first thermal transition, 50 μM protein, non-two-state fit; for Tm2 (°C) ± SE: second thermal transition; for Tm3 (°C) ± SE: third thermal transition.

As to `O=C(/C=C/C=C/c1ccc2c(c1)OCO2)N1CCCCC1` [Piperine], the “Tm1 (°C) ± SE” value was “Tm1 51.30 ± 0.32 °C”, the “Tm2 (°C) ± SE” value is “Tm2 65.47 ± 0.33 °C” and the “Tm3 (°C) ± SE” value is “Tm3 80.80 ± 0.36 °C”. For the same compound, for the setting “first transition (Tm1)”, the “ΔH (molar heat enthalpy)” value amounted to 218000 kcal/mol, the “ΔHv (van't Hoff enthalpy)” value turned out to be 43300 kcal/mol and the ΔHv/ΔH is recorded as 0.20. Where the note is “second transition (Tm2)”, the “ΔH (molar heat enthalpy)” value was 209000 kcal/mol, the “ΔHv (van't Hoff enthalpy)” value amounted to 40800 kcal/mol and the ΔHv/ΔH is given as 0.20. Further, where the note is “third transition (Tm3)”, the “ΔH (molar heat enthalpy)” value amounted to 44600 kcal/mol, the “ΔHv (van't Hoff enthalpy)” value worked out at 40900 kcal/mol and the ΔHv/ΔH was 0.92.

Take `COc1cc(OC)c2c(=O)cc(-c3ccc(OC)c(OC)c3)oc2c1` [3′,4′,5,7-Tetramethoxyflavone]: the “Tm1 (°C) ± SE” value was “Tm1 51.52 ± 0.25 °C”, the “Tm2 (°C) ± SE” value was “Tm2 79.01 ± 0.98 °C” and the “Tm3 (°C) ± SE” value was “Tm3 91.76 ± 0.43 °C”. Moreover, under “first transition (Tm1)”, the “ΔH (molar heat enthalpy)” value is 584000 kcal/mol, the “ΔHv (van't Hoff enthalpy)” value was 34000 kcal/mol and the ΔHv/ΔH came to 0.06. Also, under “second transition (Tm2)”, the “ΔH (molar heat enthalpy)” value was 957000 kcal/mol, the “ΔHv (van't Hoff enthalpy)” value is 35300 kcal/mol and the ΔHv/ΔH is recorded as 0.04. In addition, under “third transition (Tm3)”, the “ΔH (molar heat enthalpy)” value turned out to be 358000 kcal/mol, the “ΔHv (van't Hoff enthalpy)” value was found to be 58800 kcal/mol and the ΔHv/ΔH is 0.16.

On to `O=P(Oc1ccccc1)(Oc1ccccc1)Oc1ccccc1` [Triphenyl phosphate, reference compound], for which the “Tm1 (°C) ± SE” value was “Tm1 51.32 ± 1.70 °C”, the “Tm2 (°C) ± SE” value was “Tm2 67.66 ± 0.26 °C” and the “Tm3 (°C) ± SE” value is “Tm3 78.21 ± 0.44 °C”. In addition, for the setting “first transition (Tm1)”, the “ΔH (molar heat enthalpy)” value came out at 457000 kcal/mol, the “ΔHv (van't Hoff enthalpy)” value worked out at 35900 kcal/mol and the ΔHv/ΔH was 0.08. For the setting “second transition (Tm2)”, the “ΔH (molar heat enthalpy)” value is 1.31e+06 kcal/mol, the “ΔHv (van't Hoff enthalpy)” value was 66800 kcal/mol and the ΔHv/ΔH came out at 0.05. For the setting “third transition (Tm3)”, the “ΔH (molar heat enthalpy)” value worked out at 472000 kcal/mol, the “ΔHv (van't Hoff enthalpy)” value amounted to 89500 kcal/mol and the ΔHv/ΔH amounted to 0.19.

For `CN1CCc2cc3c(cc2C(=O)Cc2ccc4c(c2C1)OCO4)OCO3` [Protopine], the “Tm1 (°C) ± SE” value was “Tm1 49.93 ± 0.55 °C”, the “Tm2 (°C) ± SE” value is “Tm2 66.76 ± 0.33 °C” and the “Tm3 (°C) ± SE” value was “Tm3 86.29 ± 0.67 °C”. Where the note is “first transition (Tm1)”, the “ΔH (molar heat enthalpy)” value amounted to 630000 kcal/mol, the “ΔHv (van't Hoff enthalpy)” value was found to be 43200 kcal/mol and the ΔHv/ΔH is recorded as 0.07. In addition, under “second transition (Tm2)”, the “ΔH (molar heat enthalpy)” value worked out at 1.87e+06 kcal/mol, the “ΔHv (van't Hoff enthalpy)” value came out at 31500 kcal/mol and the ΔHv/ΔH came out at 0.02. For the setting “third transition (Tm3)”, the “ΔH (molar heat enthalpy)” value came out at 783000 kcal/mol, the “ΔHv (van't Hoff enthalpy)” value is 40100 kcal/mol and the ΔHv/ΔH worked out at 0.05.
